In brackets after ≈: the same amount, converted by molar mass. Where a SMILES comes first, the peptide text is derived from it. The star is where a group is joined. NHtBu = CC(C)(C)N*

Details in the first data set: not given
As a reminder, the logP is a log measure of how a compound divides between an organic and an aqueous phase. Lower therefore signals a more hydrophilic compound. For the compound `CCCCC(=O)OCN1C(=O)NC(c2ccccc2)(c2ccccc2)C1=O`, the logP turned out to be 3.9.
Still for that read-out and setting: with `CCCCCOC(=O)c1cc(=O)[nH]c(=O)[nH]1` the figure was 1.62.
The same measure, in the same setting: with `O=[N+]([O-])c1ccc(Cl)c([N+](=O)[O-])c1` the figure was 2.17.
The same measure, in the same setting: with `O=[N+]([O-])c1ccc2nc[nH]c2c1` the figure was 1.5; with `O=C(O)CCCCn1nc2ccccc2n1`, 0.94; with `C[Si]1(C)O[Si](C)(C)O[Si](C)(C)O[Si](C)(C)O1`, 6.74.
`O=C1CCCC1` gave a logP of 0.38.
Still for that read-out and setting: with `Nc1ccc(C=Cc2ccc(N)cc2S(=O)(=O)O)c(S(=O)(=O)O)c1` the figure was -1.7; with `COc1cc(Cl)c(Cl)cc1Cl`, 3.85.
On the same count and under the same terms, with `O=C(O)CCCCn1nnc2ccccc21` the figure was 0.48; with `C[C@H](CSC(=O)c1ccccc1)C(=O)N1C[C@@H](Sc2ccccc2)C[C@H]1C(=O)O`, 4.4.
The same measure, in the same setting: with `Cc1cc(C)c(NC(=O)CN(CC(=O)O)CC(=O)O)c(C)c1Br` the figure was 0.11.
Take `CCCCCOC(=O)c1cccnc1`: the logP came to 2.55.
Same read-out and setting: with `COC(=O)C1=C(C)NC(C)=C(C(=O)O[C@@H]2CCCN(Cc3ccccc3)C2)[C@@H]1c1cccc([N+](=O)[O-])c1` the figure was 4.61; with `COc1c(Cl)cc(Cl)cc1Cl`, 4.11.
Compound `c1ccc2nc3c4ccccc4c4ccccc4c3cc2c1` had a logP of 5.66.
The compound `Cc1cc(Cc2cc(Cl)ccc2Cl)c(Cl)cc1Cl` returned a logP of 7.53.
The same measure, in the same setting: with `Cc1ccccc1OCCNc1ccccc1C(N)=O` the figure was 2.94; with `O=C(O)CCOc1cccc2ccccc12`, 3.
The same measure, in the same setting: with `NC(=O)c1ccccc1NCCO` the figure was -0.05; with `CC1(C2=CCCCC2)C(=O)NC(=O)NC1=O`, 1.6.
Still for that read-out and setting: with `CCOC1OC2OC3(C)CCC4C(COC5OC(C(=O)O)C(O)C(O)C5O)CCC(C1C)C24OO3` (stereo unspecified) the figure was 1.05; with `NS(=O)(=O)c1nc2ccc(OCCO)cc2s1`, 0.59; with `N=C(N)NN=Cc1ccc([N+](=O)[O-])cc1`, 0.87.
`CCCC(=O)n1ncc2c(O)ncnc21` had a logP of 0.85.
For `CCC1(C)CC(=O)NC1=O` (stereo unspecified), the logP was found to be 0.38.
Same read-out and setting: with `NC(=S)NN=Cc1ccc([N+](=O)[O-])o1` the figure was 1.64; with `O=CNc1nc(-c2ccc([N+](=O)[O-])o2)cs1`, -1.14; with `O=[N+]([O-])c1ccc2c(c1)NCC2`, 1.92.
Still for that read-out and setting: with `CCn1cc(C(=O)NC(C(=O)OC)C(C)C)c(=O)c2ccc(C)nc21` (stereo unspecified) the figure was 3.61; with `N#Cc1cc(-c2ccncc2)cnc1Cl`, 1.74; with `Nc1cc([N+](=O)[O-])ccc1Cl`, 2.23.
`O=C(NCc1ccc(F)cc1)C(=O)c1c[nH]c2ccccc12` came in with a logP of 2.88.
Broadly, the solubility is how much of the substance goes into solution per volume. Low values mean little dissolved substance, high ones much dissolved substance. Consider `OCC(S)CS` (stereo unspecified), for which the solubility worked out at 700 mM (≈ 87000 µg/mL).
The compound `COC(=O)Nc1cccc(F)c1` registered a logP of 2.21.
Turning to `O=C(O)C1CCN1CC(O)Cn1ccnc1` (stereo unspecified), the logP was -2.02.
Still for that read-out and setting: with `C=CCOc1ccccc1OCC(CNC(C)C)OC(=O)CC` (stereo unspecified) the figure was 3.76.
For `CCCNC1=NC(=O)C(=Cc2ccc([N+](=O)[O-])o2)S1`, the logP came out at 1.24.
The compound `ClC1=C(Cl)C(Cl)(Cl)C(Cl)(Cl)C1(Cl)Cl` had a solubility of 0.000291 mM (≈ 0.1 µg/mL).
The compound `CCN1CC=C(c2ccccc2)CC1` showed a logP of 3.18.
Still for that read-out and setting: with `C=CCOc1ccccc1OCC(CNC(C)C)OC(=O)C=CC` (stereo unspecified) the figure was 3.65; with `CC1=C(C)C(=O)C=CC1=O`, 1.23; with `Clc1ccc(Cl)nn1`, 0.7.
The same measure, in the same setting: with `CCCCCCCc1ccccc1` the figure was 5.37; with `Cc1nc(NCc2ccccc2)nc(C(Cl)(Cl)Cl)n1`, 3.86; with `Nc1ncnc2c1ncn2Cc1ccccc1`, 1.7.
On the same count and under the same terms, with `ClCC1CO1` (stereo unspecified) the figure was 0.45; with `OCc1cc(Cl)cc(Cl)c1`, 2.9.
With `CC(C)Nc1nc(N)nc(Cl)n1`, the logP worked out at 1.51 and the solubility was 1.97 mM (≈ 369 µg/mL).
For the compound `OCc1ccccc1F`, the logP was 1.31.
Still for that read-out and setting: with `Clc1ccc(Cn2cncn2)cc1` the figure was 1.84; with `CCOC(=O)c1ccccc1C(=O)OCC`, 2.42.
On the same count and under the same terms, with `COc1nc(C)nc(=NC(O)=NS(=O)(=O)c2ccccc2C(=O)O)[nH]1` the figure was 1.7; with `COc1cc2nc(N3CCN(C(=O)C4COc5ccccc5O4)CC3)nc(N)c2cc1OC` (stereo unspecified), 3.3; with `CC(=O)NC(C)C(=O)NC(CC(=O)O)C(=O)NC(C)(C)C` (stereo not drawn) (Ac-Ala-Asp-NHtBu; configuration not given here), -0.74.
The same measure, in the same setting: with `Nc1ccc(S(=O)(=O)O)cc1` the figure was -2.16; with `CCN(CC)CCN=c1cc2n(-c3ccc(Cl)cc3)c3ccccc3nc-2cc1Nc1ccc(Cl)cc1`, 7.97; with `O=[N+]([O-])c1c2ccccc2cc2ccccc12`, 4.78.
With `CS/C(C)=N/O`, the logP is 1.12.
Still for that read-out and setting: with `Cc1cc(Br)cc(C)c1C#[N+][O-]` the figure was 3.63; with `CC(C)c1cccc(OP(=O)(Oc2ccccc2)Oc2ccccc2)c1`, 5.31.
On the same count and under the same terms, with `Cc1cc(OCCN(C)C)c(C(C)C)cc1OC1CCCCC1=O` (stereo unspecified) the figure was 3.63; with `Cc1ccc(-c2ccccc2)cc1`, 4.63; with `CCC(C(=O)Oc1ccccc1)C(C)C` (stereo unspecified), 4.2.
The compound `C=CC(=O)NCCCN(CCO)CCO` gave a logP of -0.6.
Same read-out and setting: with `CNCCc1ccccn1` the figure was 0.68.
The same measure, in the same setting: with `CCNc1nc(NC(C)C)nc(OC)n1` the figure was 2.69; with `CN1CCCC1=O`, -0.38; with `NC(N)=S`, -1.08.
`C=CCN1CCC(CNC(=O)c2cc3nn[nH]c3cc2OC)C1` (stereo unspecified) yielded a logP of 0.95.
Still for that read-out and setting: with `OCc1ccc(F)cc1` the figure was 1.36; with `CC(=O)OCN1C(=O)c2ccccc2C1=O`, 1.15.
Same read-out and setting: with `CC(C(=O)O)c1ccc2oc(-c3ccc(Cl)cc3)nc2c1` (stereo unspecified) the figure was 3.23; with `CCCCCCC(C)=O`, 2.37; with `CCCOC(=O)c1ccccc1O`, 3.8.
The same measure, in the same setting: with `O=C(O)c1nc(Cl)ccc1Cl` the figure was 1.06.
The compound `O=C(O)c1cccnc1Nc1cccc(C(F)(F)F)c1` came in with a logP of 4.43.
Same read-out and setting: with `O=C1C2=C(CCCC2)C(=O)N1c1ccc(Cl)cc1` the figure was 3.32; with `COc1ccc(C(=O)CS(=O)(=O)c2ccc(C)cc2)cc1`, 2.47; with `CC(C)(C)NCC(O)c1cc(O)cc(O)c1` (stereo unspecified), 0.9.
The same measure, in the same setting: with `CCC(C)C(NC(=O)c1cn(CC)c2nc(C)ccc2c1=O)C(=O)OC` (stereo unspecified) the figure was 3.15.
The same measure, in the same setting: with `CCCCn1cccc(O)c1=O` the figure was 1.18; with `CC(=O)Nc1ncc2ncn(COCCOC(C)=O)c2n1`, -1.05; with `CN(C)C(=O)n1nc(C(C)(C)C)nc1SCC(=O)O`, 1.62.
`NS(=O)(=O)c1nn2c(=Nc3ccc(O)cc3)snc2s1` displayed a log partition coefficient (logP) of 1.89.
The same measure, in the same setting: with `CC(C)OC(=O)c1cc(=O)[nH]c(=O)[nH]1` the figure was 0.81; with `C=CCOc1ccccc1OCC(CNC(C)C)OC(=O)CCC` (stereo unspecified), 3.95.
In the case of `Cc1ccc(C)c(C)n1`, the logP worked out at 2.05.
On the same count and under the same terms, with `C=CCOc1ccccc1OCC(CNC(C)C)OC(=O)C1CC1` (stereo unspecified) the figure was 3.01; with `OCCN1CC=C(c2ccccc2)CC1`, 2.
The same measure, in the same setting: with `CCC(O)(C(=O)O)c1ccc(CC(C)C)cc1` (stereo unspecified) the figure was 3.37.
The same measure, in the same setting: with `CCC1(C2=CCCCCC2)C(=O)NC(=O)N(C)C1=O` (stereo unspecified) the figure was 2.82.

Still in this data set, the particulars now being: 20 °C.
Turning to `COc1c(Cl)cc(Cl)cc1Cl`, the solubility is 0.0473 mM (≈ 10 µg/mL).
The same measure, in the same setting: with `Cc1cncc(C)c1` the figure was 308 mM (≈ 33000 µg/mL); with `CCOC(C)(C)C`, 117 mM (≈ 12000 µg/mL); with `CCNc1nc(NC(C)C)nc(OC)n1`, 8.52 mM (≈ 1800 µg/mL).
In the case of `CC(C)COC(=O)C(C)C`, the solubility worked out at 5.24 mM (≈ 755 µg/mL).

Still in this data set, the particulars now being: 22 °C.
For the compound `CN(C)C(=O)Nc1cccc(C(F)(F)F)c1`, the solubility came out at 0.366 mM (≈ 85 µg/mL).

Still in this data set, the particulars now being: 22.0 °C.
As to `Cc1ccc(C(C)C)cc1`, the log10 OH rate constant (cm³/molecule/s) is -10.8.

The data set is the same for the next values; noted with them: 23.0 °C.
Regarding `CC1=CCC(=O)O1`, the log10 OH rate constant (cm³/molecule/s) is -10.2.
Still for that read-out and setting: with `CC(=O)C(C)CO` (stereo unspecified) the figure was -10.8.

The data set is the same for the next values; noted with them: 24 °C.
In turn, `CN(Cc1ccccc1)N=O` showed a solubility of 30 mM (≈ 4510 µg/mL).

The same data set, now with this note: 24.0 °C.
Consider `C[Si]1(C)O[Si](C)(C)O[Si](C)(C)O[Si](C)(C)O1`, for which the log10 OH rate constant (cm³/molecule/s) was -12.
Still for that read-out and setting: with `c1ccc2cnccc2c1` the figure was -11.1.

Still in this data set, the particulars now being: 25 °C.
As for `Cc1ccc(C(C)C)cc1`, the solubility was determined as 0.174 mM (≈ 23.4 µg/mL).
In turn, `CC(C)(C)Br` showed a solubility of 4.38 mM (≈ 600 µg/mL).
Same read-out and setting: with `O=[N+]([O-])c1ccc2c3c(cccc13)CC2` the figure was 0.00457 mM (≈ 0.91 µg/mL).
Same read-out and setting: with `Clc1cc2c(oc3c(Cl)c(Cl)c(Cl)c(Cl)c32)c(Cl)c1Cl` the figure was 3.3e-09 mM (≈ 1.35e-06 µg/mL); with `O=C(O)c1cccc(C(=O)O)n1`, 29.9 mM (≈ 5000 µg/mL).
On the same count and under the same terms, with `CSc1ccccc1` the figure was 4.07 mM (≈ 506 µg/mL); with `O=[N+]([O-])c1c2ccccc2cc2ccccc12`, 0.000511 mM (≈ 0.114 µg/mL).
As for `Cc1ccc(O)c(C)c1`, the solubility stood at 64.4 mM (≈ 7870 µg/mL).
Same read-out and setting: with `Cc1cc(C)c(C)c(O)c1` the figure was 5.59 mM (≈ 762 µg/mL).
Same read-out and setting: with `c1ccc2c(c1)[nH]c1ccccc12` the figure was 0.0108 mM (≈ 1.8 µg/mL); with `Cc1ccc2cc3c(ccc4ccccc43)c3c2c1CC3`, 1.08e-05 mM (≈ 0.0029 µg/mL); with `CCCCCCCCCCCCCCCCCCCC`, 6.72e-06 mM (≈ 0.0019 µg/mL).
Still for that read-out and setting: with `Clc1cccc(Cl)c1Cl` the figure was 0.0992 mM (≈ 18 µg/mL).

Staying with this data set, now noted: 25.0 °C.
Turning to `O=CC(F)F`, the log10 OH rate constant (cm³/molecule/s) is -11.8.
The same measure, in the same setting: with `CCNc1nc(Cl)nc(NC(C)(C)C)n1` the figure was -11.
`Clc1c(Cl)c(Cl)c(Cl)c(Cl)c1Cl`: the log10 OH rate constant (cm³/molecule/s) is -13.6.
Same read-out and setting: with `CC(C)[N+](=O)[O-]` the figure was -12.6; with `CI`, -13.1; with `FC(F)=C(F)OC(F)(F)F`, -11.4.
On the same count and under the same terms, with `FC(F)(F)C(Cl)Br` (stereo unspecified) the figure was -13.3.
On the same count and under the same terms, with `O=CCCl` the figure was -11.5; with `CC(Cl)C(C)Cl` (stereo unspecified), -12.
Compound `O=CC(Cl)Cl` showed a log10 OH rate constant (cm³/molecule/s) of -11.6.
Still for that read-out and setting: with `Clc1c(Cl)c(Cl)c2c(c1Cl)Oc1ccccc1O2` the figure was -12.1.

The data set is the same for the next values; noted with them: 27.0 °C.
Compound `CNC(C)=O` came in with a log10 OH rate constant (cm³/molecule/s) of -11.3.
`Cc1ccc(C=O)o1` had a log10 OH rate constant (cm³/molecule/s) of -10.3.

The values are drawn from the OPERA property sets (Mansouri et al. 2018).
